In patent US20080039442A1, “Compounds With Kv4 Ion Channel Activity” (Devgen NV, priority 2004, published 2008):
Read-outs that look alike come from different tables or passages of the source.

Columns and labels:
hERG potassium channel = hERG potassium channel (Homo sapiens, UniProt Q12809); assay: Whole cell patch clamp, HEK 293 T-REx HERG cells; conditions: for hERG (%): 10 μM
Text: For this experiment HEK 293 T-REx HERG cells (#23) were used. This cell line made by IonGate is characterized by the inducible expression of the hERG gene. The T-REx™ System (Invitrogen, Karlsruhe, Germany) is a tetracycline-regulated mammalian expression system that uses regulatory elements from the E. coli Tn10-encoded tetracycline (Tet) resistance operon. In the absence of Tet the expression is repressed. Tetracycline regulation in the T-REx™ System is based on the binding of tetracycline to the Tet repressor and derepression of the promoter controlling expression of the hERG gene. Addition of Tet to the cell culture media results in expression of the hERG potassium channel.
To construct the HEK 293 T-REx HERG cell line, the hERG gene was ligated into the inducible expression vector pcDNA4/TO (→pc4TO-HERG) and transfected into HEK 293 T-REx cells (this cell line stably expresses the Tet repressor and was purchased at Invitrogen). Stable cell clones were isolated after selection with Blasticidin (5 μg/ml) and Zeocin™ (300 μg/ml). The clones were electrophysiological characterized after induction with 1 μg/ml Tet.
Experiments were performed using the patch clamp set-up. Technical equipment needed for manipulation of the cells was placed on a vibration-isolated table and shielded with a Faraday cage to minimize electrical noise. The amplifier and control system were placed in a rack outside the Faraday cage. The system consisted of an EPC9 or EPC10 patch clamp amplifier (HEKA, Lambrecht, Germany), and the perfusion system DADVC8 (ALA Scientific, New York, USA) controlled by the Pulse software package (HEKA, Lambrecht, Germany) installed on a personal computer.
The cells used for this experiment were kept in continuous culture under standard conditions (37° C., air supplemented with 5% CO2). The HEK 293 T-REx HERG cells were kept in minimal essential medium (MEM) supplemented with 100 U/ml Penicillin, 100 μg/ml Streptomycin, 10% fetal calf serum (FCS), 1% non-essential amino acids (NEAA), 2.5 μg/ml amphotericin, 300 μg/ml Zeocin™ and 5 μg/ml Blasticidin. Cells were passed every 3-4 days after detachment using a Trypsin solution. The quality of the cultured cells was guaranteed by vitality and contamination tests.
At least 18 hours prior to electrophysiological experiments the cells were detached by application of iced PBS (phosphate buffered saline) or Trypsin and replated on cover slips. 1 μg/ml Tet was added to the cells to induce hERG expression.
Activity of the cardiac hERG channel was investigated using the patch clamp technique in its whole cell mode. This means that the current needed for clamping the whole cell expressing the K^+-channel protein to a specific potential was measured. The pipettes used for patch clamping were made of borosilicate glass. Measurements were performed at room temperature (20-25° C.). In each experiment (i.e. each cell) only one concentration of the compound was investigated—no cumulative dosages were performed. Each cell acted as its own control. The effect of the compounds on hERG mediated currents was investigated at one concentration (10 μM) with two replicates each (c=1, n=2).
Between voltage pulses the cell was clamped to a holding potential of −80 mV (inside).
(b) and (c) were used to characterize the properties of the hERG channel and to check the quality of the individual patch clamp experiment (voltage control). Each test protocol consisted of 6 segments.

[1] = biological target: T1, human Kv4.3/KChIP2.2 potassium channel (Homo sapiens, UniProt Q9UK17); assay: Whole cell patch clamp, CHO-K1 cells stably expressing Kv4.3/KChIP2.2; format: cell-based; conditions: for remaining activity at 1 µM: CHO-K1
T1 construct: expressed in transfected cells
T1 sequence (Q9UK17 1-655): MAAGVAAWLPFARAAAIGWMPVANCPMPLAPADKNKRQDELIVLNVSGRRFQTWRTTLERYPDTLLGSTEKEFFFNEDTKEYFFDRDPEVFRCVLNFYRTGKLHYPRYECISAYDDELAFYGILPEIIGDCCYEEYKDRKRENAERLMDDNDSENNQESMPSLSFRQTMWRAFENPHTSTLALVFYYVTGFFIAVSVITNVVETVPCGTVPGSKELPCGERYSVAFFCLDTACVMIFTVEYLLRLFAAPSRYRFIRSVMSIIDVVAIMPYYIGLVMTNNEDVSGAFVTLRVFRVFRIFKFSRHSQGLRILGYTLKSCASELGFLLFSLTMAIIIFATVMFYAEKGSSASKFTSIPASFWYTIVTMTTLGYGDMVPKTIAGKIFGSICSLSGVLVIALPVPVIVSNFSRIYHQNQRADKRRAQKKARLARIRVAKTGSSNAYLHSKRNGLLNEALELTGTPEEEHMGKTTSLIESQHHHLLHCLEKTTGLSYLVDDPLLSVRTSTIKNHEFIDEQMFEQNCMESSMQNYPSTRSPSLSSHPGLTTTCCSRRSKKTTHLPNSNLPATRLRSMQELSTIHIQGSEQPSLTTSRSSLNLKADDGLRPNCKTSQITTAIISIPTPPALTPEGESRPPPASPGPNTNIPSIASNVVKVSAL
T1 sequence (Q9NS61 1-270 partner): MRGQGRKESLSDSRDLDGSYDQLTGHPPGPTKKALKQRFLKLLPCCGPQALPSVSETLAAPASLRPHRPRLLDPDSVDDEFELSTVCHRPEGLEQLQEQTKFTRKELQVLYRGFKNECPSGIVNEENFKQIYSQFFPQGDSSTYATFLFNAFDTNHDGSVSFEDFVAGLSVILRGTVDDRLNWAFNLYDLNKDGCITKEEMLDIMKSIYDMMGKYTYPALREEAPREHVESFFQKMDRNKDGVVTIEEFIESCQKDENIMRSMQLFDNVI
Procedure: For this experiment, a recombinant CHO-K1 cell line stably expressing the human Kv4.3/KChIP2.2 potassium channel was used.
Protocol B: The cells were cultured in 94 mm culture dishes under the culturing conditions of 5% CO2 and 37° C. Subculturing was performed every 3-4 days, by removing the media and then rising the dish with 8 ml PBS (phosphate buffered saline). The PBS was removed and 1 ml Trypsin/EDTA was added to the cells. The cells were incubated about 2 min at 37° C. or 5 min at room temperature and then the dish was rapped to detach and singularize the cells. To inactivate the enzyme 9 ml of media was added and the solution was pipetted up and down to break up clumps of cells. Part of the suspension was then transferred to a new 94 mm dish and media was added to a final volume of 8 ml. If necessary the cells could be seeded onto 35 mm or 94 mm dishes (2 ml media per 35 mm dish and 8 ml media per 94 mm dish). The media was changed every 2-3 days. The media used was the solution for culturing the cells described above. For stable cells antibiotic G418, Hygromycin, Blasticidin, or Zeocin were not added.
The preparation of cells for electrophysiological experiments was performed as described in protocol C hereunder.
Protocol C: The transfected cells and stable cells were transferred from 35 mm cell culture dishes onto coverslips using cold PBS: The media was removed and 0.3 ml of PBS (4-10° C.) was added. The cells were incubated 5 min at room temperature. The dish was rapped to detach and singularize the cells and 1.7 ml media was added and the solution pipetted up and down to break up clumps of cells. Part of the cell suspension was then transferred to a 35 mm dish with coverslips and media. The transfected cells and stable cells could also be transferred from 35 mm cell culture dishes onto coverslips using trypsin: The media was removed and the dish rinsed with 3 ml PBS. The PBS was removed and 0.3 ml 1× Trypsin/EDTA was added and the cells incubated 5 min at room temperature. The dish was rapped to detach and singularize the cells and 1.7 ml media was added and the solution pipetted up and down to break up clumps of cells. Part of the cell suspension was then transferred to a 35 mm dish with coverslips and media.
10 mM stock solutions of the compounds were prepared in DMSO. Solutions of the compounds were prepared by dilution of stock solution in bath solution. If the required stock solution volume was theoretically below 1 μl, bath solutions with higher compound concentration were used for dilution. The maximal DMSO concentration during experiments was 0.1% (v/v).
For patch clamp experiments, the following solutions in demineralized water as vehicle were used (concentration in mM).
Bath (external) solution: 4 KCl, 135 NaCl, 2 CaCl2, 1 MgCl2, 10 D(+)-Glucose, 5 HEPES, pH 7.4 (NaOH).
Pipette (internal) solution: 130 KCl, 1 MgCl2, 10 EGTA, 5 Na2ATP, 5 HEPES, pH 7.4 (KOH).
Experiments were performed using a patch clamp set-up.
Measurements were performed at room temperature (20-25° C.). […] Each cell acted as its own control. The effect of compounds on Kv4.3/KChIP2.2 mediated currents was investigated at one concentration ([…]) with two replicates each (c=1, n=2).
The test protocols are illustrated in FIG. 1 and Table 4. […] Each test protocol consisted of 4 segments.
Subsequently, 14 test pulses (series 1; FIG. 1b and Table 4b) were applied at 0.1 Hz under constant superfusion with bath solution. The protocol was initiated by a voltage jump to −100 mV (400 ms) to achieve full inactivation. Then the Kv4.3/KChIP2.2 channels were transferred to the open state by depolarization to +40 mV for 300 milliseconds (activation). Only cells generating current amplitudes between 1 nA and 50 nA were used for the experimental procedure. No or negligible rundown was observed.
Then, 36 test pulses (series 2) were applied at 0.1 Hz under constant superfusion with the compound dissolved in bath solution. […]

[2] = read-out: Kv4.3 charge in %: remaining current measured after application of the compound and relative to the blank
[3] = read-out: Kv4.3 peak in %: remaining peak height measured after application of the compound and relative to the blank

hERG potassium channel, sequence (Q12809 whole entry): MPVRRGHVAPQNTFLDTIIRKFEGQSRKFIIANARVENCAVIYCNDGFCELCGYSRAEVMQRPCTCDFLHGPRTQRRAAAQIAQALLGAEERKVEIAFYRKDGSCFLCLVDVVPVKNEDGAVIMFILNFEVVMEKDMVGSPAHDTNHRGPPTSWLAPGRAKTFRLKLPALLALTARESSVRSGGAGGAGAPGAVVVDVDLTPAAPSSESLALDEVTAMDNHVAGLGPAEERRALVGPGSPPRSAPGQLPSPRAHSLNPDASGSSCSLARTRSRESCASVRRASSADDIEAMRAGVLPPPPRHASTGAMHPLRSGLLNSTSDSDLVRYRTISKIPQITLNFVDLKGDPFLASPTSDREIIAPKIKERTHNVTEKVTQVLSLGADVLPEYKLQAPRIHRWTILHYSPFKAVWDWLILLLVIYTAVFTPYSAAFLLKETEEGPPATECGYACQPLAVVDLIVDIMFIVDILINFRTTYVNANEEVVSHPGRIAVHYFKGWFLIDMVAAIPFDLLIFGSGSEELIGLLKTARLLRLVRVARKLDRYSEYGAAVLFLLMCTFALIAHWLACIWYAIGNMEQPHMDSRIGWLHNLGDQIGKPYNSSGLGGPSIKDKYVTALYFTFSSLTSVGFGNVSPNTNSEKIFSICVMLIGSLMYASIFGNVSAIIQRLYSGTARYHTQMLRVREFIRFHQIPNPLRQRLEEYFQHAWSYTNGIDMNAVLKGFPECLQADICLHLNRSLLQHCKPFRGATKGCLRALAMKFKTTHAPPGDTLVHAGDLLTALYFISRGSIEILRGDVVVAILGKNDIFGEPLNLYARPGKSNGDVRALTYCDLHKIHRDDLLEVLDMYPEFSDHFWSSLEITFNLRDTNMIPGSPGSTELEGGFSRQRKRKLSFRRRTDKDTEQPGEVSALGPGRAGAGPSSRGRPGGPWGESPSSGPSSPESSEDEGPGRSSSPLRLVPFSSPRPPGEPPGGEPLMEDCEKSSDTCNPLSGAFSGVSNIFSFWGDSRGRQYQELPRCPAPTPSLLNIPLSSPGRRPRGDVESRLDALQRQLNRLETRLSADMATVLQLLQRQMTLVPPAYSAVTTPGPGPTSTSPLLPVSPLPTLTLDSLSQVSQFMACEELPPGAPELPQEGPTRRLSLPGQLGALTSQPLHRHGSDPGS

| Structure (SMILES) | IC50 (hERG potassium channel) [µM] | Ratio hERG/Kv4.3 (hERG potassium channel; selectivity Kv4.3 vs hERG, patch clamp) | IC50 ([1]; Table 12, read-out: Kv4.3 charge IC50) [µM] | hERG (%) (hERG potassium channel) | melting point [°C] | remaining activity at 1 µM [1, 2] [%] | remaining activity at 1 µM [1, 3] [%] |
| --- | --- | --- | --- | --- | --- | --- | --- |
| CN(CCCN1c2ccccc2CCc2ccccc21)C(=O)c1cc2cc(Cl)ccc2o1 [Compound 4, 5-chloro-benzofuran-2-carboxylic acid [3-(10,11-dihydro-dibenzo[b,f]azepin-5-yl)-propyl]-methyl-amide] | 20 | 5.2 | 3.81 | – | – | – | – |
| COc1ccc(CNC(=O)c2oc3ccc(Cl)cc3c2C)c(OC)c1 [Compound 16, 5-choro-3-methyl-benzofuran-2-carboxylic acid 2,4-dimethoxy-benzylamide] | – | – | – | 47 | 139.8 to 140.4 | 24 | 88 |
| COc1ccc(CNC(=O)c2oc3ccccc3c2-n2cccc2)c(OC)c1 [Compound 18, 3-pyrrol-1-yl-benzofuran-2-carboxylic acid 2,4-dimethoxy-benzylamide] | – | – | – | 41 | 46 to 51.8 | 45 | 88 |
| O=C(c1cc2cc(Cl)ccc2o1)N1CCCCC1Cc1ccccc1 (centres unmarked) [Compound 28, (2-benzyl-piperidin-1-yl)-(5-chloro-benzofuran-2-yl)-methanone] | – | – | – | 6 | – | 38 | 86 |
| COc1ccc(CNC(=O)c2cc3ccccc3s2)c(OC)c1 [Compound 32, benzo[b]thiophene-2-carboxylic acid 2,4-dimethoxy-benzylamide] | – | – | – | – | 134.4 to 135.3 | 75 | 100 |
| CC(=O)Oc1ccc(CNC(=O)c2cc3cc(Cl)ccc3o2)cc1 [Compound 33, acetic acid 4-{[(5-chloro-benzofuran-2-carbonyl)-amino]-methyl}-phenyl ester] | – | – | – | – | 162.5 to 164.5 | 89 | 100 |
| O=C(NCc1ccc(-c2cccs2)cc1)c1cc2cc(Cl)ccc2o1 [Compound 34, 5-chloro-benzofuran-2-carboxylic acid 4-thiophen-2-yl-benzylamide] | – | – | – | – | 173.5 to 175 | 90 | 98 |
| Cc1ccc(CNC(=O)c2cc3cc(Cl)ccc3o2)cc1 [Compound 36, 5-chloro-benzofuran-2-carboxylic acid 4-methyl-benzylamide] | – | – | – | – | 161.9 to 162.9 | 72 | 89 |
| O=C(c1cc2cc(Cl)ccc2o1)N1CCC(c2ccccc2)CC1 [Compound 38, (5-chloro-benzofuran-2-yl)-(4-phenyl-piperidin-1-yl)-methanone] | – | – | – | – | 101 to 101.6 | 89 | 99 |
| O=C(NCc1cccs1)c1cc2cc(Cl)ccc2o1 [Compound 39, 5-chloro-benzofuran-2-carboxylic acid 4-(thiophen-2-ylmethyl)-amide] | – | – | – | – | 148.4 to 149.9 | 90 | 91 |
| COc1ccc(CNC(=O)c2cnc3ccccc3c2)c(OC)c1 [Compound 42, quinolin-3-carboxylic acid 2,4-dimethoxy-benzylamide] | – | – | – | – | 136.3 | 89 | 98 |
| CN(C)CC(NC(=O)c1cc2cc(Cl)ccc2o1)c1ccccc1 (centres unmarked) [Compound 49, 5-chloro-benzofuran-2-carboxylic acid (2-dimethylamino-1-phenyl-ethyl)-amide] | – | – | – | – | 60.2 to 60.4 | 85 | 98 |
| Cc1cccc(Cl)c1CNC(=O)c1cc2cc(Cl)ccc2o1 [Compound 62, 5-chloro-benzofuran-2-carboxylic acid 2-chloro-6-methyl-benzylamide] | – | – | – | – | 168.3 to 168.7 | 39 | 86 |
| CN(C)c1ccc(CNC(=O)c2cc3cc(Cl)ccc3o2)cc1 [Compound 64, 5-chloro-benzofuran-2-carboxylic acid 4-dimethylamino-benzylamide] | – | – | – | – | 178.6 to 179.7 | 76 | 85 |
| CC(C)(C)c1ccc(CNC(=O)c2cc3cc(Cl)ccc3o2)cc1 [Compound 71, 5-chloro-benzofuran-2-carboxylic acid 4-tert-butyl-benzylamide] | – | – | – | – | 129.5 to 131.1 | 71 | 95 |
| O=C(c1cc2cc(Cl)ccc2o1)N1CC=C(c2ccc(F)cc2)CC1 [Compound 93, (5-chloro-benzofuran-2-yl)-[4-(4-fluoro-phenyl)-3,6-dihydro-2H-pyridin-1-yl]-methanone] | – | – | – | – | 111.3 to 116.6 | 73 | 89 |
| O=C(Nc1ccc(Cn2cccn2)cc1)c1cc2cc(Cl)ccc2o1 [Compound 105, 5-chloro-benzofuran-2-carboxylic acid (4-pyrazol-1-ylmethyl-phenyl)-amide] | – | – | – | – | 197.4 to 198.8 | 90 | 99 |
| COc1ccc(CNC(=O)c2cc3cc(Cl)ccc3o2)c(O)c1 [Compound 108, 5-chloro-benzofuran-2-carboxylic acid 2-hydroxy-4-methoxy-benzylamide] | – | – | – | – | 173.8 to 176.2 | 85 | 99 |
| N#CCCN(Cc1ccccc1)C(=O)c1cc2cc(Cl)ccc2o1 [Compound 109, 5-chloro-benzofuran-2-carboxylic acid benzyl-(2-cyano-ethyl)-amide] | – | – | – | 34 | – | 74 | 97 |
